Experimental data published in ChEMBL document CHEMBL4024727, “Synthesis and antimycobacterial screening of new thiazolyl-oxazole derivatives” (Eur J Med Chem, 2017).
Converted amounts (≈) assume the structure as drawn.

Test system: Mycobacterium tuberculosis
Experiment: Antitubercular activity against Mycobacterium bovis BCG ATCC 35743 dormant stage by nitrate reductase based two-fold dilution assay
Type: functional
Conditions: BCG str. ATCC 35743

SMILES	IC50 [nM]	MIC90 [µM]
Cc1nc(-c2ccc(F)cc2)oc1-c1csc(Cc2ccc(F)cc2)n1	190	1.76 (≈ 0.648 µg/mL)

Test system: Mycobacterium tuberculosis
Experiment: Growth inhibition of Mycobacterium bovis BCG ATCC 35743 at 10 ug/ml by nitrate reductase based two-fold dilution assay relative to control
Type: functional
Conditions: BCG str. ATCC 35743, read-out: GI

SMILES	inhibition of growth at 10 µg/mL [%]
Cc1nc(-c2ccc(F)cc2)oc1-c1csc(Cc2ccc(F)cc2)n1	95

Test system: HeLa
Experiment: (§1) Growth inhibition of human HeLa cells by MTT assay
Type: cell-based
Conditions: hela

SMILES	GI90 [µg/mL]
Cc1nc(-c2ccc(F)cc2)oc1-c1csc(Cc2ccc(F)cc2)n1	> 250

Test system: not listed separately
Experiment: as §1
Type: cell-based
Conditions: HeLa cells

SMILES	GI50 [µg/mL]
Cc1nc(-c2ccc(F)cc2)oc1-c1csc(Cc2ccc(F)cc2)n1	94.9 (≈ 258 µM)

Test system: not listed separately
Experiment: Selectivity index, ratio of GI50 for human HeLa cells to MIC for Mycobacterium bovis BCG ATCC 35743 dormant stage
Type: toxicity, cell-based
Conditions: read-out: Selectivity Index

SMILES	selectivity ratio
Cc1nc(-c2ccc(F)cc2)oc1-c1csc(Cc2ccc(F)cc2)n1	146

Test system: Mycobacterium tuberculosis
Experiment: Growth inhibition of Mycobacterium bovis BCG ATCC 35743 at 1 ug/ml by nitrate reductase based two-fold dilution assay relative to control
Type: functional
Conditions: BCG str. ATCC 35743, read-out: GI

SMILES	inhibition of growth at 1 µg/mL [%]
Cc1nc(-c2ccc(F)cc2)oc1-c1csc(Cc2ccc(F)cc2)n1	93

Test system: Escherichia coli
Experiment: Growth inhibition of Escherichia coli NCIM 2576 at 1 ug/ml measured after 8 hrs relative to control
Type: functional
Conditions: NCIM 2576, 8 h, read-out: GI

SMILES	inhibition of growth at 1 µg/mL [%]
Cc1nc(-c2ccc(F)cc2)oc1-c1csc(Cc2ccc(F)cc2)n1	72.2

Test system: Escherichia coli
Experiment: Growth inhibition of Escherichia coli NCIM 2576 at 10 ug/ml measured after 8 hrs relative to control
Type: functional
Conditions: NCIM 2576, 8 h, read-out: GI

SMILES	inhibition of growth at 10 µg/mL [%]
Cc1nc(-c2ccc(F)cc2)oc1-c1csc(Cc2ccc(F)cc2)n1	85.2

Test system: not listed separately
Experiment: Selectivity index, ratio of GI50 for human HeLa cells to MIC for Mycobacterium tuberculosis H37Ra ATCC 25177 dormant stage
Type: toxicity, cell-based
Conditions: read-out: Selectivity Index

SMILES	selectivity ratio
Cc1nc(-c2ccc(F)cc2)oc1-c1csc(Cc2ccc(F)cc2)n1	148

Test system: Mycobacterium tuberculosis
Experiment: Growth inhibition of Mycobacterium tuberculosis H37Ra ATCC 25177 at 3 ug/ml by XTT dye based two-fold dilution method relative to control
Type: functional
Conditions: read-out: GI

SMILES	inhibition of growth at 3 µg/mL [%]
Cc1nc(-c2ccc(F)cc2)oc1-c1csc(Cc2ccc(F)cc2)n1	91

Test system: not listed separately
Experiment: Selectivity index, ratio of GI50 for human A549 cells to MIC for Mycobacterium bovis BCG ATCC 35743 dormant stage
Type: toxicity
Conditions: read-out: Selectivity Index

SMILES	selectivity ratio
Cc1nc(-c2ccc(F)cc2)oc1-c1csc(Cc2ccc(F)cc2)n1	385

Test system: not listed separately
Experiment: Selectivity index, ratio of GI50 for human PANC1 cells to MIC for Mycobacterium tuberculosis H37Ra ATCC 25177 dormant stage
Type: toxicity
Conditions: PANC-1 cells, read-out: Selectivity Index

SMILES	selectivity ratio
Cc1nc(-c2ccc(F)cc2)oc1-c1csc(Cc2ccc(F)cc2)n1	391

Test system: Pseudomonas fluorescens
Experiment: Antibacterial activity against Pseudomonas fluorescens NCIM 2059 measured after 8 hrs
Type: functional
Conditions: NCIM 2059, 8 h

SMILES	MIC [µM]
Cc1nc(-c2ccc(F)cc2)oc1-c1csc(Cc2ccc(F)cc2)n1	54.8 (≈ 20.2 µg/mL)

Test system: Mycobacterium tuberculosis
Experiment: Growth inhibition of Mycobacterium bovis BCG ATCC 35743 at 30 ug/ml by nitrate reductase based two-fold dilution assay relative to control
Type: functional
Conditions: BCG str. ATCC 35743, read-out: GI

SMILES	inhibition of growth at 30 µg/mL [%]
Cc1nc(-c2ccc(F)cc2)oc1-c1csc(Cc2ccc(F)cc2)n1	96

Test system: Bacillus subtilis
Experiment: Growth inhibition of Bacillus subtilis NCIM 2162 at 30 ug/ml measured after 12 hrs relative to control
Type: functional
Conditions: NCIM 2162, 12 h, read-out: GI

SMILES	inhibition of growth at 30 µg/mL [%]
Cc1nc(-c2ccc(F)cc2)oc1-c1csc(Cc2ccc(F)cc2)n1	96.7

Test system: not listed separately
Experiment: Selectivity index, ratio of GI50 for human A549 cells to MIC for Mycobacterium tuberculosis H37Ra ATCC 25177 dormant stage
Type: toxicity
Conditions: read-out: Selectivity Index

SMILES	selectivity ratio
Cc1nc(-c2ccc(F)cc2)oc1-c1csc(Cc2ccc(F)cc2)n1	391

Test system: Staphylococcus aureus
Experiment: Growth inhibition of Staphylococcus aureus NCIM 2602 at 30 ug/ml measured after 12 hrs relative to control
Type: functional
Conditions: NCIM 2602, 12 h, read-out: GI

SMILES	inhibition of growth at 30 µg/mL [%]
Cc1nc(-c2ccc(F)cc2)oc1-c1csc(Cc2ccc(F)cc2)n1	94.1

Test system: Bacillus subtilis
Experiment: Growth inhibition of Bacillus subtilis NCIM 2162 at 10 ug/ml measured after 12 hrs relative to control
Type: functional
Conditions: NCIM 2162, 12 h, read-out: GI

SMILES	inhibition of growth at 10 µg/mL [%]
Cc1nc(-c2ccc(F)cc2)oc1-c1csc(Cc2ccc(F)cc2)n1	88.2

Test system: Bacillus subtilis
Experiment: Growth inhibition of Bacillus subtilis NCIM 2162 at 1 ug/ml measured after 12 hrs relative to control
Type: functional
Conditions: NCIM 2162, 12 h, read-out: GI

SMILES	inhibition of growth at 1 µg/mL [%]
Cc1nc(-c2ccc(F)cc2)oc1-c1csc(Cc2ccc(F)cc2)n1	83.5

Test system: Escherichia coli
Experiment: Antibacterial activity against Escherichia coli NCIM 2576 measured after 8 hrs
Type: functional
Conditions: NCIM 2576, 8 h

SMILES	MIC [µM]
Cc1nc(-c2ccc(F)cc2)oc1-c1csc(Cc2ccc(F)cc2)n1	60.3 (≈ 22.2 µg/mL)

Test system: Mycobacterium tuberculosis
Experiment: Antitubercular activity against Mycobacterium tuberculosis H37Ra ATCC 25177 dormant stage by XTT dye based two-fold dilution method
Type: functional
Conditions: not given

SMILES	IC50 [nM]	MIC90 [µM]
Cc1nc(-c2ccc(F)cc2)oc1-c1csc(Cc2ccc(F)cc2)n1	180	1.74 (≈ 0.641 µg/mL)

Test system: Pseudomonas fluorescens
Experiment: Growth inhibition of Pseudomonas fluorescens NCIM 2059 at 30 ug/ml measured after 8 hrs relative to control
Type: functional
Conditions: NCIM 2059, 8 h, read-out: GI

SMILES	inhibition of growth at 30 µg/mL [%]
Cc1nc(-c2ccc(F)cc2)oc1-c1csc(Cc2ccc(F)cc2)n1	95.9

Test system: not listed separately
Experiment: (§2) Growth inhibition of human A549 cells by MTT assay
Type: cell-based
Conditions: A549 cells

SMILES	GI50 [µg/mL]
Cc1nc(-c2ccc(F)cc2)oc1-c1csc(Cc2ccc(F)cc2)n1	> 250

Test system: A549
Experiment: as §2
Type: cell-based
Conditions: a549

SMILES	GI90 [µg/mL]
Cc1nc(-c2ccc(F)cc2)oc1-c1csc(Cc2ccc(F)cc2)n1	> 250

Test system: Staphylococcus aureus
Experiment: Antibacterial activity against Staphylococcus aureus NCIM 2602 measured after 12 hrs
Type: functional
Conditions: NCIM 2602, 12 h

SMILES	MIC [µM]
Cc1nc(-c2ccc(F)cc2)oc1-c1csc(Cc2ccc(F)cc2)n1	62.7 (≈ 23.1 µg/mL)

Test system: PANC-1
Experiment: (§3) Growth inhibition of human PANC1 cells by MTT assay
Type: cell-based
Conditions: panc-1

SMILES	GI90 [µg/mL]
Cc1nc(-c2ccc(F)cc2)oc1-c1csc(Cc2ccc(F)cc2)n1	> 250

Test system: not listed separately
Experiment: as §3
Type: cell-based, PANC-1
Conditions: PANC-1 cells

SMILES	GI50 [µg/mL]
Cc1nc(-c2ccc(F)cc2)oc1-c1csc(Cc2ccc(F)cc2)n1	> 250

Test system: Mycobacterium tuberculosis
Experiment: Growth inhibition of Mycobacterium tuberculosis H37Ra ATCC 25177 at 10 ug/ml by XTT dye based two-fold dilution method relative to control
Type: functional
Conditions: read-out: GI

SMILES	inhibition of growth at 10 µg/mL [%]
Cc1nc(-c2ccc(F)cc2)oc1-c1csc(Cc2ccc(F)cc2)n1	93

Test system: Pseudomonas fluorescens
Experiment: Growth inhibition of Pseudomonas fluorescens NCIM 2059 at 10 ug/ml measured after 8 hrs relative to control
Type: functional
Conditions: NCIM 2059, 8 h, read-out: GI

SMILES	inhibition of growth at 10 µg/mL [%]
Cc1nc(-c2ccc(F)cc2)oc1-c1csc(Cc2ccc(F)cc2)n1	83.2

Test system: Staphylococcus aureus
Experiment: Growth inhibition of Staphylococcus aureus NCIM 2602 at 1 ug/ml measured after 12 hrs relative to control
Type: functional
Conditions: NCIM 2602, 12 h, read-out: GI

SMILES	inhibition of growth at 1 µg/mL [%]
Cc1nc(-c2ccc(F)cc2)oc1-c1csc(Cc2ccc(F)cc2)n1	80

Test system: Escherichia coli
Experiment: Growth inhibition of Escherichia coli NCIM 2576 at 30 ug/ml measured after 8 hrs relative to control
Type: functional
Conditions: NCIM 2576, 8 h, read-out: GI

SMILES	inhibition of growth at 30 µg/mL [%]
Cc1nc(-c2ccc(F)cc2)oc1-c1csc(Cc2ccc(F)cc2)n1	94.8

Test system: Staphylococcus aureus
Experiment: Growth inhibition of Staphylococcus aureus NCIM 2602 at 10 ug/ml measured after 12 hrs relative to control
Type: functional
Conditions: NCIM 2602, 12 h, read-out: GI

SMILES	inhibition of growth at 10 µg/mL [%]
Cc1nc(-c2ccc(F)cc2)oc1-c1csc(Cc2ccc(F)cc2)n1	82.1

Test system: Pseudomonas fluorescens
Experiment: Growth inhibition of Pseudomonas fluorescens NCIM 2059 at 1 ug/ml measured after 8 hrs relative to control
Type: functional
Conditions: NCIM 2059, 8 h, read-out: GI

SMILES	inhibition of growth at 1 µg/mL [%]
Cc1nc(-c2ccc(F)cc2)oc1-c1csc(Cc2ccc(F)cc2)n1	78.6

Test system: Bacillus subtilis
Experiment: Antibacterial activity against Bacillus subtilis NCIM 2162 measured after 12 hrs
Type: functional
Conditions: NCIM 2162, 12 h

SMILES	MIC [µM]
Cc1nc(-c2ccc(F)cc2)oc1-c1csc(Cc2ccc(F)cc2)n1	39.1 (≈ 14.4 µg/mL)

Test system: Mycobacterium tuberculosis
Experiment: Growth inhibition of Mycobacterium tuberculosis H37Ra ATCC 25177 at 30 ug/ml by XTT dye based two-fold dilution method relative to control
Type: functional
Conditions: read-out: GI

SMILES	inhibition of growth at 30 µg/mL [%]
Cc1nc(-c2ccc(F)cc2)oc1-c1csc(Cc2ccc(F)cc2)n1	93

Test system: not listed separately
Experiment: Selectivity index, ratio of GI50 for human PANC1 cells to MIC for Mycobacterium bovis BCG ATCC 35743 dormant stage
Type: toxicity
Conditions: PANC-1 cells, read-out: Selectivity Index

SMILES	selectivity ratio
Cc1nc(-c2ccc(F)cc2)oc1-c1csc(Cc2ccc(F)cc2)n1	385
